Assay results as given in ChEMBL document CHEMBL3045283, “Synthesis and biological activity of heterocycles from chalcone” (2008).
Active and inactive are the calls of the source. The calls are words filed in the database; no cut-off is given here.

Tests used:
[1] = test system: Escherichia coli; assay: Antibacterial activity against Escherichia coli at 1000 ug/disk; assay type: functional
[2] = test system: Bacillus subtilis; assay: Antibacterial activity against Bacillus subtilis at 1000 ug/disk; assay type: functional; conditions: read-out: IZ
[3] = test system: Salmonella typhimurium; assay: Antibacterial activity against Salmonella enterica subsp. enterica serovar Typhimurium at 1000 ug/disc; assay type: functional, organism-based
[4] = test system: Staphylococcus aureus; assay: Antibacterial activity against Staphylococcus aureus at 1000 ug/disc; assay type: functional

With `O=c1oc2ccccc2c(O)c1C1=NNC(c2cn[nH]c2-c2ccccc2O)C1` (configuration not stated) the zone of inhibition at 1000 µg/disc ([1]; read-out: IZ) was 12 mm, the zone of inhibition at 1000 µg/disc [2] was 25 mm and the “inhibition zone (IZ)” value [3] was “inactive”. The zone of inhibition at 1000 µg/disc ([4]; read-out: IZ) was 20 mm.
For `O=c1oc2ccccc2c(O)c1C1=NN(c2ccccc2)C(c2cnn(-c3ccccc3)c2-c2ccccc2O)C1` (configuration not stated), the “inhibition zone (IZ)” value [1] was “inactive”, the zone of inhibition at 1000 µg/disc [2] was 10 mm and the “inhibition zone (IZ)” value [3] was “inactive”. The “inhibition zone (IZ)” value [4] was “inactive”.
In the case of `O=C(/C=C/c1coc2ccccc2c1=O)c1c(O)c2ccccc2oc1=O`, the “inhibition zone (IZ)” value [1] is reported as “inactive”, the zone of inhibition at 1000 µg/disc [2] is reported as 12 mm and the “inhibition zone (IZ)” value [3] is reported as “inactive”. For the same compound, the “inhibition zone (IZ)” value [4] was “inactive”.
